This note sets out measurements from ChEMBL document CHEMBL1201862, “PubChem BioAssay data set” (2004).

Values joined by “and” are separate entries in the source; they are usually repeats but may differ in a detail not shown here. Equal values may be shown once.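 Grown in 96-well plates, cells were treated for 48 hours with each compound at five concentrations. Insufficient inhibition: endpoint recorded as highest concentration tested. The concentration for 50% growth inhibition is given as GI50.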 Active and inactive are the calls of the source. No stated cut-off is given here; in the data, active = GI50 up to about 1.1 µM and inactive = higher.

Test systems include UACC-257; HCT-116; KM12; HL-60; PC-3; MDA-N; MOLT-4; SK-MEL-28; MDA-MB-435; CAKI-1; Malme-3M; IGROV-1; LOX IMVI; HOP-62; OVCAR-5; OVCAR-3; NCI-H522; SNB-75; NCI-H23; ACHN.
What all share (test): DTP human tumour cell line panel, 48 h

As a reminder, the GI50 is the concentration giving 50% growth inhibition.

Consider `COc1ccc(-c2nc(SC)n(C3OC(COC(C)=O)C(OC(C)=O)C(OC(C)=O)C3OC(C)=O)c(=O)c2C#N)cc1` (stereo unspecified), for which the GI50 with UACC-257 is > 100 µM (inactive); in the assay with HCT-116, > 100 µM (inactive) and 91.2 µM (inactive); in the assay with KM12, > 100 µM (inactive); with HL-60, > 100 µM (inactive); in the assay on PC-3 it was > 100 µM (inactive); in the assay on MDA-N, > 100 µM (inactive). In addition, the GI50 in the assay with MOLT-4 was 68.4 µM (inactive); with SK-MEL-28, > 100 µM (inactive) and 72.1 µM (inactive); in the assay on MDA-MB-435 it was > 100 µM (inactive); in the assay with CAKI-1, > 100 µM (inactive); with Malme-3M, 65.6 µM (inactive); in the assay on IGROV-1, > 100 µM (inactive). The GI50 in the assay with LOX IMVI is 56.4 µM (inactive).

`COc1cc(OC)c(NC2=NCCO2)cc1Cl`: the GI50 in the assay with UACC-257 was 31 µM (inactive); in the assay with HCT-116, 34.4 µM (inactive); in the assay on KM12 it was 16.7 µM (inactive); in the assay on HL-60, 43.3 µM (inactive); in the assay with PC-3, 24.3 µM (inactive); with MDA-N it was 17.1 µM (inactive). Further, the GI50 with MOLT-4 was 44.2 µM (inactive); with HOP-62, 49.7 µM (inactive); in the assay on SK-MEL-28, 44 µM (inactive); in the assay on OVCAR-5 it was 53.8 µM (inactive); with OVCAR-3, 43.6 µM (inactive); in the assay on MDA-MB-435, 20.1 µM (inactive). Further, the GI50 is 32.8 µM (inactive) with NCI-H522; 35.6 µM (inactive) in the assay with SNB-75; 68.7 µM (inactive) in the assay on Malme-3M; 38 µM (inactive) in the assay with IGROV-1; 31.4 µM (inactive) in the assay with LOX IMVI; 22.2 µM (inactive) with NCI-H23. For the same molecule, the GI50 with ACHN is 64.7 µM (inactive).

As to `CCN(CC)CCNc1ccc2nnn3c4ccc(OC(C)=O)cc4c(=O)c1c23`, the GI50 in the assay with UACC-257 is 9.84 µM (inactive); in the assay with HCT-116 it was 3.46 µM (inactive); in the assay with KM12, 3.15 µM (inactive); with PC-3, 3.62 µM (inactive); in the assay with MDA-N, 4.61 µM (inactive); in the assay with MOLT-4, 0.284 µM (active). The GI50 in the assay with HOP-62 was 1.98 µM (inactive); in the assay on SK-MEL-28, 13.4 µM (inactive); in the assay with OVCAR-5 it was 11.7 µM (inactive); with OVCAR-3, 7.96 µM (inactive); with MDA-MB-435, 5.15 µM (inactive); in the assay on NCI-H522, 0.628 µM (active). The GI50 in the assay with CAKI-1 was 0.378 µM (active); in the assay on Malme-3M, 1.11 µM (active); in the assay on IGROV-1, 0.224 µM (active); in the assay on LOX IMVI, 1.47 µM (inactive); in the assay with NCI-H23, 3.77 µM (inactive); in the assay with ACHN it was 1.02 µM (active).

For `CN(C)c1ccc(C(N)=O)cn1`, the GI50 with UACC-257, in the assay on HCT-116, with KM12, with HL-60, with PC-3 and in the assay with MDA-N was > 100 µM (inactive) throughout. Besides, the GI50 in the assay with MOLT-4, in the assay with HOP-62, in the assay with SK-MEL-28, in the assay on OVCAR-5, in the assay on OVCAR-3 and in the assay with MDA-MB-435 was > 100 µM (inactive) each time. The GI50 in the assay with NCI-H522, in the assay with SNB-75, in the assay with Malme-3M, in the assay with IGROV-1, with LOX IMVI and with NCI-H23 was > 100 µM (inactive) each time. The GI50 with ACHN was > 100 µM (inactive).

Take `N#CC(/N=N/c1ccc(Cl)cc1)c1nc2ccccc2o1` (stereo unspecified): the GI50 with UACC-257 was > 100 µM (inactive); in the assay with HCT-116, 56.4 µM (inactive); in the assay with KM12, 89.7 µM (inactive); in the assay with HL-60 it was 33.7 µM (inactive); in the assay on PC-3, 77.6 µM (inactive); with MDA-N, > 100 µM (inactive). The GI50 in the assay on MOLT-4 was 20.5 µM (inactive); with HOP-62, 38.3 µM (inactive); with SK-MEL-28, > 100 µM (inactive); with OVCAR-5, > 100 µM (inactive); with OVCAR-3, 37.9 µM (inactive); in the assay with MDA-MB-435, > 100 µM (inactive). Moreover, the GI50 in the assay on NCI-H522 is 10.6 µM (inactive); in the assay with CAKI-1 it was > 100 µM (inactive); in the assay with Malme-3M, 34.6 µM (inactive); in the assay with NCI-H23 it was 25.6 µM (inactive); in the assay with ACHN it was 32.9 µM (inactive).

Regarding `CCCCCC/C=C\CCCCCCCCCc1c(O)c(OC)cc(O)c1CN(C)C`, the GI50 in the assay with UACC-257 was 11.4 µM (inactive); in the assay on HCT-116 it was 3.85 µM (inactive); in the assay with KM12 it was 3.34 µM (inactive); in the assay with HL-60 it was 1.6 µM (inactive); in the assay on PC-3, 2.96 µM (inactive); with MDA-N, 13 µM (inactive). Moreover, the GI50 in the assay with MOLT-4 was 1.69 µM (inactive); in the assay with HOP-62, 12.8 µM (inactive); in the assay with SK-MEL-28, 13.2 µM (inactive); in the assay on OVCAR-5, 14.5 µM (inactive); in the assay on OVCAR-3, 6.35 µM (inactive); in the assay on MDA-MB-435 it was 6.64 µM (inactive). Also, the GI50 with NCI-H522 was 1.64 µM (inactive); in the assay on SNB-75, 2.79 µM (inactive); in the assay on CAKI-1 it was 13.8 µM (inactive); with IGROV-1, 3.18 µM (inactive); with LOX IMVI it was 3.2 µM (inactive); in the assay on NCI-H23, 8.61 µM (inactive). For the same molecule, the GI50 in the assay with ACHN is 10.7 µM (inactive).

With `CCOC(=O)C(=[N+]=[N-])C(=O)CN1C(=O)C2CC(C)=C(C)CC2C1O` (stereo unspecified), the GI50 in the assay on UACC-257, with HCT-116, with KM12, with HL-60, with PC-3 and in the assay with MDA-N was > 100 µM (inactive) throughout. The GI50 in the assay on MOLT-4, in the assay with HOP-62, in the assay with SK-MEL-28, in the assay with OVCAR-5, with OVCAR-3 and in the assay with MDA-MB-435 was > 100 µM (inactive) in each case. Further, the GI50 in the assay with NCI-H522, with SNB-75, with Malme-3M, in the assay on IGROV-1, with LOX IMVI and with NCI-H23 was > 100 µM (inactive) each time. In addition, in the assay on ACHN, the GI50 was > 100 µM (inactive).

In the case of `FC(F)(F)C1(C(F)(F)F)OC(Cl)(Cl)C(Cl)(Cl)O1`, the GI50 in the assay on UACC-257, with HCT-116, in the assay with KM12, in the assay with PC-3, in the assay on MDA-N and in the assay with HOP-62 was > 10 µM (inactive) throughout. Moreover, the GI50 with SK-MEL-28, in the assay on OVCAR-5, with OVCAR-3, with MDA-MB-435, with NCI-H522 and in the assay with CAKI-1 was > 10 µM (inactive) in each case. The GI50 in the assay with Malme-3M, with IGROV-1, with LOX IMVI, in the assay with NCI-H23 and in the assay with ACHN was > 10 µM (inactive) throughout.
